Legend:
Format in all cases: cell-based
B. cepacia [1] = assay: B. cepacia binding to normal human bronchial epithelial (NHBE) cells; conditions: for % Binding of control / % Inhibition: NHBE cells, mean of 4 experiments (range)
Experimental: Normal human bronchial epithelial (NHBE) cells were grown in 48 well plates. […] Unbound bacteria were removed by washing 6 times with PBS and the bound bacteria were desorbed in 1 ml of 0.5% triton X-100 and quantitated by dilution plating. Results are shown in Table 3 and represent the mean of 4 independent experiments and the values in parenthesis represent the range of experimental values.

[2] = tested on: B. cepacia CEP040 (genomovar V); assay: microbe, parasite or virus in culture; set-up: inhibition: dose or concentration left out as unconfirmed
Experimental: (§1) B. cepacia (10^7-10^8 cfu) in 5 μl was added to the epithelial surface of tracheal explants, incubated for 2 h at 37° C. and gently washed with PBS 5 times to remove unbound bacteria.
(§2) Bound bacteria were desorbed with 0.25% triton X-100, serially diluted and plated on B. cepacia isolation agar, and incubated at 37° C. for 72 hours. Colonies were counted to calculate the number of bacteria bound per explant. When inhibitors were used, explants were incubated with inhibitors for 1 hour prior to the addition of bacteria.
(§3) Tracheal explants were preincubated for 1 hour with dextran 4K or 40K or xylitol. Bacteria (10^7 or 10^8 cfu) were then incubated for 2 hours with the tracheal explants and the number of bound bacteria per explant was determined as described above. Bacterial binding to explants preincubated with culture medium alone was considered as 0% inhibition (FIG. 1, each bar represents the mean of 14 to 17 independent experiments using trachea from 5 to 6 donors. Data were analyzed by the mixed model analysis of variance using MIXED procedure in SAS statistical software).
(§4) Explants were obtained from lungs removed from donors for transplantation. All lungs were preserved using LPD lung preservation solution (Perfadex®, Vitrolife, Gotenberg, Sweden) (Fischer et al. (2001), J. Thorac. Cardiovasc. Surg., v. 121, pp. 594-596). Segments of donor trachea that were trimmed off the lung before implantation were used in this study. Airway explants were prepared from donor tracheal segments, which were cut into approximately 4×4 mm^2 pieces, placed in transwells with the epithelial surface facing up and maintained in BEGM at an air/liquid interface for a maximum of 24 h at 37° C., 5% CO2. To evaluate the morphological status of the airway explants at this time, the explants were fixed in 10% buffered formalin and embedded in agar-paraffin. Five micron thick sections were stained with hematoxylin and eosin and examined under a light microscope (Leica, Scarborough, ON). • Effect of dextrans and xylitol on the viability of B. cepacia: B. cepacia (10^7 cfu) was suspended in BEGM containing 0, 2, 4, 6, 7 or 8% of dextran or xylitol for 2 h and then the number of viable bacteria was determined by colony counting method. • Binding of B. cepacia to airway explants: B. cepacia suspended in PBS (5 μl containing 10^8 cfu) was added in the center of the epithelial surface of airway explants and incubated for 2 h at 37° C., 5% CO2. The explants were washed gently 6 times with sterile PBS to remove unbound bacteria, and bound bacteria desorbed by incubating in 1 ml of 0.25% triton X-100 for 10 min at RT. Samples were serially diluted, and plated on B. cepacia isolation agar (Henry et al. (1997), J. Clin. Microbiol., v. 35, pp. 614-619). After 72 h of incubation at 37° C., bacterial colonies were counted to determine the number of bacteria (cfu) bound per explant.
(§5) In inhibition assays, epithelia of airway explants were pre-incubated with varying concentrations of potential inhibitors, dextran (4, 10 or 40 kDa) or xylitol for 1 h at 37° C., then bacteria were added and the assay continued as described above. Controls (no inhibitor added) in each experiment were set to a value of 100% binding, to calculate the % inhibition caused by inhibitors. Statistical analysis was carried out using Statsview and the unpaired student's t-test was used to calculate the p value. • Immunological detection of bound bacteria or mucin in airway explants: Paraffin sections of airway explants incubated with PBS or B. cepacia in presence or absence of inhibitors were deparaffinized, rehydrated and heated under pressure for 1.5 min in 10 mM citrate buffer pH 6.0 (Shi et al. (1991), J. Histochem. Cytochem., v. 39, pp. 741-748) to retrieve antigenic sites.

[3] = tested on: B. cepacia isolate BC7 (genomovar III); assay: microbe, parasite or virus in culture; set-up: inhibition: dose or concentration left out as unconfirmed; conditions: for Percent Inhibition of binding to tracheal explants: isolate BC7, genomovar III
Experimental: as §1, §2, §3, §4, §5

[4] = tested on: B. cepacia FC473 (genomovar IV); assay: microbe, parasite or virus in culture; set-up: inhibition: dose or concentration left out as unconfirmed
Experimental: as §1, §2, §3, §4, §5

[5] = tested on: B. cepacia ATCC 25416 (genomovar I); assay: microbe, parasite or virus in culture; set-up: inhibition: dose or concentration left out as unconfirmed
Experimental: as §1, §2, §3, §4, §5

[6] = tested on: B. cepacia C5393 (genomovar II); assay: microbe, parasite or virus in culture; set-up: inhibition: dose or concentration left out as unconfirmed
Experimental: as §1, §2, §3, §4, §5

B. cepacia [7] = assay: Effect of dextrans and xylitol on the viability of B. cepacia; conditions: 60 to 80 mg/ml, 2 h, compared to BEGM alone
Experimental: as §4, with “To evaluate the morphological status of the airway explants at this time, the explants were fixed in 10% buffered formalin and embedded in agar-paraffin.” left out, “The explants were washed gently 6 times with sterile PBS to remove unbound bacteria, and bound bacteria desorbed by incubating in 1 ml of 0.25% triton X-100 for 10 min at RT. Samples were serially diluted, and plated on B. cepacia isolation agar (Henry et al. (1997), J. Clin. Microbiol., v. 35, pp. 614-619).” left out

[8] = Burkholderia cepacia, Epithelial cell, read-out: % Inhibition of B. cepacia isolates binding to tracheal epithelial cells

O=C[C@H](O)[C@@H](O)[C@@H](O)[C@H](O)CO [Galactose]
inhibitory effect on binding of B. cepacia to NHBE cells (B. cepacia [1]; 0 to 1.8%/ml): None of these sugars inhibited the binding

OC[C@@H](O)[C@H](O)[C@@H](O)CO [Xylitol]
% Binding of control (B. cepacia [1]; xylitol 6%): 64 (29-105) % | % Inhibition (B. cepacia [1]; xylitol 6%): 36 (0-71) % | % Binding of control (B. cepacia [1]; xylitol 7%): 56 (54-58) % | % Inhibition (B. cepacia [1]; xylitol 7%): 44 (42-44) % | % Binding of control (B. cepacia [1]; xylitol 8%): 33 (23-43) % | % Inhibition (B. cepacia [1]; xylitol 8%): 67 (57-77) % | % Binding of control (B. cepacia [1]; xylitol 10%): 23 (18-29) % | % Inhibition (B. cepacia [1]; xylitol 10%): 77 (71-82) % | inhibition [2, 8]: 70 ± 6.75% | Percent Inhibition of binding to tracheal explants ([2]; isolate CEP040, genomovar V, inhibitor 8%): 64% | inhibition of binding of BC7 to airway explants (in words) ([3]; 60 to 80 mg/ml, p<0.005 compared to PBS treated controls, FIG. 4b): significantly inhibited the binding | inhibition [3, 8]: 58 ± 10.7% | inhibition at 80000 µg/mL ([3]; Burkholderia cepacia, read-out: inhibition of binding of B. cepacia isolate BC7 to airway explants): 67% | inhibition of B. cepacia BC7 binding to tracheal explants (in words) ([3]; Example 1, FIG. 1, 1 hour preincubation, p value <0.0001): effective in causing inhibition of bacterial binding | Percent Inhibition of binding to tracheal explants ([3]; inhibitor 7%): 76% | Percent Inhibition of binding to tracheal explants ([3]; inhibitor 8%): 81% | inhibition [4, 8]: 70 ± 3.26% | Percent Inhibition of binding to tracheal explants ([4]; isolate FC473, genomovar IV, inhibitor 7%): 72% | inhibition ([5]; Burkholderia cepacia, ATCC25416, Epithelial cell, read-out: % Inhibition of B. cepacia isolates binding to tracheal epithelial cells): 82 ± 1.29% | Percent Inhibition of binding to tracheal explants ([5]; isolate ATCC 25416, genomovar I, inhibitor 8%): 84% | inhibition [6, 8]: 70 ± 6.78% | Percent Inhibition of binding to tracheal explants ([6]; isolate C5393, genomovar II, inhibitor 8%): 68% | viability of B. cepacia (B. cepacia [7]): no change in viability

CC(=O)N[C@H]1[C@H](O[C@H]2[C@H](O)[C@@H](NC(C)=O)[C@H](O[C@H]3[C@H](O)[C@@H](NC(C)=O)C(O)O[C@@H]3CO)O[C@@H]2CO)O[C@H](CO)[C@@H](O[C@@H]2O[C@H](CO)[C@@H](O[C@@H]3O[C@H](CO)[C@@H](O[C@@H]4O[C@H](CO)[C@@H](O)[C@H](O)[C@H]4NC(C)=O)[C@H](O)[C@H]3NC(C)=O)[C@H](O)[C@H]2NC(C)=O)[C@@H]1O (stereo partly shown) [chitohexose]
inhibitory effect on binding of B. cepacia to NHBE cells (B. cepacia [1]; 0-100 μg/ml): None of these sugars inhibited the binding

CC(=O)N[C@@H]1[C@@H](O)[C@H](O[C@@H]2O[C@H](CO)[C@@H](O[C@@H]3O[C@H](CO)[C@@H](O[C@@H]4O[C@H](CO)[C@@H](O[C@@H]5O[C@H](CO)[C@@H](O)[C@H](O)[C@H]5NC(C)=O)[C@H](O)[C@H]4NC(C)=O)[C@H](O)[C@H]3NC(C)=O)[C@H](O)[C@H]2NC(C)=O)[C@@H](CO)O[C@H]1O [chitopentose]
inhibitory effect on binding of B. cepacia to NHBE cells (B. cepacia [1]; 0-100 μg/ml): None of these sugars inhibited the binding

N[C@H]1[C@H](O[C@H]2[C@H](O)[C@@H](N)[C@H](O[C@H]3[C@H](O)[C@@H](N)[C@H](O[C@H]4[C@H](O)[C@@H](N)C(O)O[C@@H]4CO)O[C@@H]3CO)O[C@@H]2CO)O[C@H](CO)[C@@H](O)[C@@H]1O (stereo partly shown) [chitotetraose]
inhibitory effect on binding of B. cepacia to NHBE cells (B. cepacia [1]; 0-100 μg/ml): None of these sugars inhibited the binding

chitobiose
inhibitory effect on binding of B. cepacia to NHBE cells (B. cepacia [1]; 0-100 μg/ml): None of these sugars inhibited the binding

— patent US6939668B2, “Compositions and methods for treatment of lung transplants” (priority 2001, dated 2005)
